Data published in DBAASP.
In brackets after ≈: the same amount, converted by molar mass. Several values for one entry are separate records, joined by “and”; a condition that tells them apart may be missing. Identical values can stand only once. One block for each compound: values may come before it.

Columns and labels:
Assay in all cases: ≥ marks a high value that may be exact or a test limit, other limits are often not marked, values filed in µg/mL are converted to µM
[1] = test system: Porphyromonas gingivalis ATCC 33277
[2] = test system: Staphylococcus epidermidis KCTC 1917
[3] = test system: Enterococcus faecalis ATCC 51299
[4] = test system: Escherichia coli KCTC 1682
[5] = test system: Pseudomonas aeruginosa CCARM 2095
[6] = test system: Actinomyces israelii ATCC 12102
[7] = test system: Pseudomonas aeruginosa CCARM 2109
[8] = test system: Fusobacterium nucleatum NCTC 11326
[9] = test system: Staphylococcus aureus CCARM 3090
[10] = test system: Enterococcus faecium ATCC 51559
[11] = test system: Candida albicans ATCC 26790
[12] = test system: Streptococcus mutans ATCC 25175
[13] = test system: Bacillus subtilis KCTC 3068
[14] = test system: Staphylococcus aureus CCARM 3089
[15] = test system: Pseudomonas aeruginosa KCTC 1637
[16] = test system: Staphylococcus aureus CCARM 3095
[17] = test system: Salmonella typhimurium KCTC 1926
Escherichia coli O29 = test system: Escherichia coli O29
[18] = test system: Acinetobacter baumannii ATCC 19606
[19] = test system: Streptococcus pyogenes NZ131
[20] = test system: Staphylococcus aureus ATCC 25923
[21] = test system: Candida albicans ATCC 14053
[22] = test system: Staphylococcus aureus mprF
Acinetobacter baumannii = test system: Acinetobacter baumannii
[23] = test system: Escherichia coli ATCC 25922
[24] = test system: Staphylococcus saprophyticus ATCC 15305
[25] = test system: Staphylococcus aureus ATCC 43330
[26] = test system: Streptococcus agalactiae ATCC 12386
[27] = test system: Enterococcus faecalis ATCC 29212
[28] = test system: Neisseria gonorrhoeae ATCC 49226
[29] = test system: Proteus vulgaris ATCC 49132
[30] = test system: Klebsiella pneumoniae ATCC 700603
[31] = test system: Shigella sonnei ATCC 25931
Serratia sp. ATCC 39006 = test system: Serratia sp. ATCC 39006
[32] = test system: Micrococcus luteus ATCC 49732
[33] = test system: Staphylococcus epidermidis ATCC 12228
[34] = test system: Salmonella enterica subsp. enterica serovar Typhimurium ATCC 14028
[35] = test system: Enterococcus faecalis ATCC 19433
[36] = test system: Enterobacter cloacae ATCC 49141
Escherichia coli D21 = test system: Escherichia coli D21
[37] = test system: Staphylococcus aureus II ATCC 6538P
[38] = test system: Candida albicans ATCC 10231
[39] = test system: Pseudomonas aeruginosa ATCC 27853
[40] = test system: Aspergillus fumigatus ATCC 26430
[41] = test system: Klebsiella pneumoniae ATCC 13883
[42] = test system: Escherichia coli CGSC 5167
[43] = test system: Streptococcus pneumoniae ATCC 700677
[44] = test system: Enterococcus faecium ATCC 35667
[45] = test system: Streptococcus pneumoniae ATCC 33400
[46] = test system: Pseudomonas aeruginosa ATCC 10145
[47] = test system: Staphylococcus aureus ATCC 33591

SMILES: CC[C@H](C)[C@H](NC(=O)[C@H](CC(C)C)NC(=O)[C@H](CCCCN)NC(=O)[C@@H](NC(=O)[C@@H](NC(=O)[C@H](CCCN=C(N)N)NC(=O)[C@@H](N)CCCCN)[C@@H](C)CC)C(C)C)C(=O)N[C@@H](CC(C)C)C(=O)N[C@@H](CCCCN)C(=O)N[C@@H](Cc1c[nH]c2ccccc12)C(=O)N[C@@H](CC(C)C)C(=O)N[C@@H](CCCN=C(N)N)C(N)=O [KRIVKLILKWLR]
- MIC [1]: 2.5 µM (≈ 3.91 µg/mL)
- MIC [2]: 2 µM (≈ 3.13 µg/mL)
- MIC [3]: ≥ 39.9 µM
- MIC [4]: 8 µM (≈ 12.5 µg/mL)
- MIC [5]: 16 µM (≈ 25 µg/mL)
- MIC [6]: 2.5 µM (≈ 3.91 µg/mL)
- MIC [7]: 8 µM (≈ 12.5 µg/mL)
- MIC [8]: 4.99 µM (≈ 7.81 µg/mL)
- MIC [9]: 8 µM (≈ 12.5 µg/mL)
- MIC [10]: 4 µM (≈ 6.26 µg/mL)
- MIC [11]: 9.97 µM (≈ 15.6 µg/mL)
- MIC [12]: 2.5 µM (≈ 3.91 µg/mL)
- MIC [13]: 5.66 µM (≈ 8.85 µg/mL)
- MIC [14]: 4 µM (≈ 6.26 µg/mL)
- MIC [15]: 8 µM (≈ 12.5 µg/mL)
- MIC [16]: 4 µM (≈ 6.26 µg/mL)
- MIC [17]: 2.83 µM (≈ 4.43 µg/mL)

SMILES: CC(C)C[C@H](NC(=O)[C@H](Cc1cnc[nH]1)NC(=O)[C@H](CCCCN)NC(=O)[C@H](CC(C)C)NC(=O)[C@H](CC(C)C)NC(=O)[C@H](Cc1cnc[nH]1)NC(=O)[C@H](CCCCN)NC(=O)[C@H](CC(C)C)NC(=O)[C@H](CC(C)C)NC(=O)[C@H](Cc1cnc[nH]1)NC(=O)[C@H](CCCCN)NC(=O)[C@H](CC(C)C)NC(=O)[C@H](C)NC(=O)[C@H](CC(=O)O)NC(=O)[C@@H](N)CC(=O)O)C(=O)O [DDALKHLLKHLLKHL]
- MIC [23]: 100 µM (≈ 179 µg/mL)
- MIC [18]: 50 µM (≈ 89.7 µg/mL)
- MIC [35]: 25 µM (≈ 44.9 µg/mL)
- MIC [36]: ≥ 100 µM
- MIC (Escherichia coli D21): ≥ 50 µM
- MIC [37]: 25 µM and 22 µM
- MIC [38]: 12.5 µM (≈ 22.4 µg/mL)
- MIC [39]: 50 µM (≈ 89.7 µg/mL)
- MIC [40]: 12.5 µM and 25 µM

Results, then the compound that gave them:

- MIC (Escherichia coli O29): ≥ 64 µM
- MIC [18]: 25.9 µM (≈ 64 µg/mL)
- MIC [19]: 4 µM (≈ 9.88 µg/mL)
- MIC [20]: > 64 µM
- MIC [21]: 10 µM (≈ 24.7 µg/mL)
- MIC [22]: 16 µM (≈ 39.5 µg/mL)
- MIC (Acinetobacter baumannii): 9.16 µM (≈ 22.6 µg/mL)
SMILES: CC[C@H](C)[C@H](NC(=O)[C@H](CCCN=C(N)N)NC(=O)[C@H](CCC(N)=O)NC(=O)[C@@H](NC(=O)[C@@H](NC(=O)[C@H](CCCN=C(N)N)NC(=O)[C@@H](N)CCCCN)[C@@H](C)CC)C(C)C)C(=O)N[C@@H](CCCCN)C(=O)N[C@@H](CC(=O)O)C(=O)N[C@@H](Cc1ccccc1)C(=O)N[C@@H](CC(C)C)C(=O)N[C@@H](CCCN=C(N)N)C(=O)N[C@@H](CC(N)=O)C(=O)N[C@@H](CC(C)C)C(=O)N[C@H](C(=O)N1CCC[C@H]1C(=O)N[C@@H](CCCN=C(N)N)C(=O)N[C@H](C(=O)N[C@@H](CCC(=O)O)C(=O)N[C@@H](CO)C(=O)O)[C@@H](C)O)C(C)C [KRIVQRIKDFLRNLVPRTES]

- MIC [23]: 1.62 µM (≈ 5.21 µg/mL)
- MIC [24]: 0.976 µM (≈ 3.13 µg/mL)
- MIC [25]: 2.6 µM (≈ 8.33 µg/mL)
- MIC [26]: 2.6 µM (≈ 8.33 µg/mL)
- MIC [27]: 2.25 µM (≈ 7.21 µg/mL)
- MIC [20]: 2.25 µM (≈ 7.21 µg/mL)
- MIC [28]: 5.2 µM (≈ 16.7 µg/mL)
- MIC [29]: 3.25 µM (≈ 10.4 µg/mL)
- MIC [30]: 4.55 µM (≈ 14.6 µg/mL)
- MIC [31]: 3.9 µM (≈ 12.5 µg/mL)
- MIC (Serratia sp. ATCC 39006): 3.9 µM (≈ 12.5 µg/mL)
- MIC [32]: 0.814 µM (≈ 2.61 µg/mL)
- MIC [33]: 2.92 µM (≈ 9.37 µg/mL)
- MIC [34]: 2.25 µM (≈ 7.21 µg/mL)
SMILES: CC[C@H](C)[C@H](NC(=O)[C@H](CCCCN)NC(=O)[C@H](CCCN=C(N)N)NC(=O)[C@H](CC(C)C)NC(=O)[C@H](Cc1ccccc1)NC(=O)[C@H](CCCN=C(N)N)NC(=O)CNC(=O)[C@H](Cc1ccccc1)NC(=O)[C@@H](N)CCCN=C(N)N)C(=O)N[C@@H](CCCN=C(N)N)C(=O)N[C@@H](CCCN=C(N)N)C(=O)N[C@@H](Cc1ccccc1)C(=O)N[C@@H](CCCN=C(N)N)C(=O)N1CCC[C@H]1C(=O)N[C@@H](CCCCN)C(=O)N[C@H](C(=O)N[C@H](C(=O)N[C@H](C(=O)N[C@H](C(=O)N[C@H](C(=O)N[C@@H](CCC(N)=O)C(=O)NCC(=O)N[C@@H](CO)C(=O)N[C@@H](C)C(=O)N[C@@H](CCCN=C(N)N)C(=O)N[C@@H](Cc1ccccc1)C(N)=O)[C@@H](C)CC)[C@@H](C)O)[C@@H](C)CC)[C@@H](C)O)C(C)C [RFGRFLRKIRRFRPKVTITIQGSARF]

- MIC [23]: 0.9 µM (≈ 1.4 µg/mL)
- MIC [41]: 0.3 µM (≈ 0.468 µg/mL)
- MIC [42]: 0.4 µM (≈ 0.624 µg/mL)
- MIC [20]: 6 µM (≈ 9.37 µg/mL)
- MIC [43]: 4 µM (≈ 6.24 µg/mL)
- MIC [44]: 4 µM (≈ 6.24 µg/mL)
- MIC [45]: 5 µM (≈ 7.8 µg/mL)
- MIC [30]: 0.6 µM (≈ 0.937 µg/mL)
- MIC [46]: 2 µM (≈ 3.12 µg/mL)
- MIC [39]: 1.5 µM (≈ 2.34 µg/mL)
- MIC [10]: 2 µM (≈ 3.12 µg/mL)
- MIC [47]: 3 µM (≈ 4.68 µg/mL)
SMILES: CC[C@H](C)[C@H](NC(=O)[C@H](CCCN=C(N)N)NC(=O)[C@H](CCCN=C(N)N)NC(=O)[C@H](Cc1ccccc1)NC(=O)[C@H](CC(C)C)NC(=O)[C@H](CCCN=C(N)N)NC(=O)[C@@H](N)CCCN=C(N)N)C(=O)N[C@@H](CC(C)C)C(=O)N[C@@H](CCCN=C(N)N)C(=O)N[C@@H](Cc1ccc(O)cc1)C(=O)N[C@@H](CC(C)C)C(N)=O [RRLFRRILRYL]
